# Source: patent US9725449B2, “Tricyclic compounds as anticancer agents” (BRISTOL-MYERS SQUIBB COMPANY, priority 2015, dated 2017)
# Target: BRD4 (Homo sapiens, UniProt O60885)
# Test: Time resolved fluorescence resonance energy transfer (TR-FRET) binding assay, bromodomain BRD4
# Conditions: one of the FRET assays described; read-out: FRET BRD4 IC50
row,Structure (SMILES),IC50
1,"COc1ncc(S(C)(=O)=O)c2c1c1ncc(-c3c(C)nnn3C)cc1n2C(c1ccccc1)C1CCC(F)(F)CC1 (single isomer, unassigned) [Example 91, 8-[(4,4-Difluorocyclohexyl)(phenyl)methyl]-5-(dimethyl-1H-1,2,3-triazol-5-yl)-10-methanesulfonyl-13-methoxy-3,8,12-triazatricyclo[7.4.0.0^2,^7]trideca-1(13),2(7),3,5,9,11-hexaene]",< 1500 nM
2,"Cc1nnn(C)c1-c1cnc2c3ccc(N4CC(C)S(=O)(=O)C(C)C4)nc3n([C@H](c3ccccc3)C3CCOCC3)c2c1 (single isomer, unassigned) [Example 190]",< 1 nM
3,"Cc1nnn(C)c1-c1cnc2c3ccc(N4CC(C)S(=O)(=O)C(C)C4)nc3n([C@H](c3ccccc3)C3CCOCC3)c2c1 (single isomer, unassigned) [Example 191]",< 1 nM
4,"[2H]C([2H])([2H])c1nnn(C)c1-c1cnc2c3c(OC)ncc(C(C)(C)O)c3n(C(c3ccccc3)C3CCC(F)(F)CC3)c2c1 (single isomer, unassigned) [Example 281, 2-{8-[(4,4-Difluorocyclohexyl)(phenyl)methyl]-13-methoxy-5-[4-(^2H3)methyl-1-methyl-1H-1,2,3-triazol-5-yl]-3,8,12-triazatricyclo[7.4.0.0^2,^7]trideca-1(9),2,4,6,10,12-hexaen-10-yl}propan-2-ol]",< 10 nM
5,"[2H]C([2H])([2H])c1nnn(C)c1-c1cnc2c3c(OC)ncc(C(C)(C)O)c3n(C(c3ccccc3)C3CCC(F)(F)CC3)c2c1 (single isomer, unassigned) [Example 282, 2-{8-[(4,4-Difluorocyclohexyl)(phenyl)methyl]-13-methoxy-5-[4-(^2H3)methyl-1-methyl-1H-1,2,3-triazol-5-yl]-3,8,12-triazatricyclo[7.4.0.0^2,^7]trideca-1(9),2,4,6,10,12-hexaen-10-yl}propan-2-ol]",< 1 nM
6,"Cc1nnn(C)c1-c1cnc2c3cnc(Cl)cc3n(C(c3ncccc3F)C3CCOCC3)c2c1 (single isomer, unassigned) [Example 317]",< 1500 nM
7,"Cc1nnn(C)c1-c1cnc2c3cnc(Cl)cc3n(C(c3ncccc3F)C3CCOCC3)c2c1 (single isomer, unassigned) [Example 318]",< 10 nM
8,"[2H]C([2H])([2H])c1nnn(C)c1-c1cnc2c3cnc(Cl)cc3n(C(c3ncccc3F)C3CCOCC3)c2c1 (single isomer, unassigned) [Example 320]",< 1500 nM
9,"[2H]C([2H])([2H])c1nnn(C)c1-c1cnc2c3cnc(Cl)cc3n(C(c3ncccc3F)C3CCOCC3)c2c1 (single isomer, unassigned) [Example 321]",< 10 nM
10,"Cc1noc(C)c1-c1cnc2c3cnc(Cl)cc3n(C(c3ccc(Cl)cn3)C3CCOCC3)c2c1 (single isomer, unassigned) [Example 327]",< 1500 nM
11,"Cc1noc(C)c1-c1cnc2c3cnc(Cl)cc3n(C(c3ccc(Cl)cn3)C3CCOCC3)c2c1 (single isomer, unassigned) [Example 328]",< 10 nM
12,"[2H]C([2H])([2H])c1nnn(C)c1-c1cc2c(cn1)c1ncc(C(C)(C)O)cc1n2C(c1ncccc1F)C1CCOCC1 (single isomer, unassigned) [Example 366]",< 10 nM
13,"[2H]C([2H])([2H])c1nnn(C)c1-c1cc2c(cn1)c1ncc(C(C)(C)O)cc1n2C(c1ncccc1F)C1CCOCC1 (single isomer, unassigned) [Example 367]",< 10 nM
14,"CCCC(c1ncccc1F)n1c2cc(-c3c(C)nnn3C)ncc2c2ncc(C(C)(C)O)cc21 (single isomer, unassigned) [Example 370]",< 10 nM
15,"CCCC(c1ncccc1F)n1c2cc(-c3c(C)nnn3C)ncc2c2ncc(C(C)(C)O)cc21 (single isomer, unassigned) [Example 371]",< 10 nM
16,"Cc1cccnc1C(C1CCOCC1)n1c2cc(-c3c(C)nnn3C)ncc2c2ncc(C(C)(C)O)cc21 (single isomer, unassigned) [Example 373]",< 1500 nM
17,"Cc1cccnc1C(C1CCOCC1)n1c2cc(-c3c(C)nnn3C)ncc2c2ncc(C(C)(C)O)cc21 (single isomer, unassigned) [Example 374]",< 10 nM
18,"CCCC(c1ccc(F)cn1)n1c2cc(-c3c(C)nnn3C)ncc2c2ncc(C(C)(C)O)cc21 (single isomer, unassigned) [Example 375]",< 1500 nM
19,"CCCC(c1ccc(F)cn1)n1c2cc(-c3c(C)nnn3C)ncc2c2ncc(C(C)(C)O)cc21 (single isomer, unassigned) [Example 376]",< 10 nM
20,"Cc1nnn(C)c1-c1cnc2c3ccc(N4CCS(=O)(=O)C(C)C4)nc3n([C@H](c3ccccc3)C3CCOCC3)c2c1 (single isomer, unassigned; diastereomer b) [Example 218]",< 1 nM
21,"[2H]C([2H])([2H])c1nnn(C)c1-c1cnc2c3c(OC)ncc(S(C)(=O)=O)c3n(C(c3ccc(F)cc3)C3CCC(F)(F)CC3)c2c1 (stereo in doubt) [Example 96, 8-[(R)-(4,4-Difluorocyclohexyl)(4-fluorophenyl)methyl]-10-methanesulfonyl-13-methoxy-5-[4-(^2H3)methyl-1-methyl-1H-1,2,3-triazol-5-yl]-3,8,12-triazatricyclo[7.4.0.0^2,^7]trideca-1(13),2(7),3,5,9,11-hexaene]",< 1500 nM
22,"[2H]C([2H])([2H])c1nnn(C)c1-c1cnc2c3cnc(Cl)cc3n([C@H](c3ncccc3F)C3CCOCC3)c2c1 (stereo in doubt) [Example 314, 11-Chloro-8-[(3-fluoropyridin-2-yl)(oxan-4-yl)methyl]-5-[4-(^2H3)methyl-1-methyl-1H-1,2,3-triazol-5-yl]-3,8,12-triazatricyclo[7.4.0.0^2,^7]trideca-1(9),2(7),3,5,10,12-hexaene]",< 10 nM
23,"Cc1nnn(C)c1-c1cnc2c3c(F)nccc3n([C@H](c3ccccc3)C3CCOCC3)c2c1 [Example 3, 5-(Dimethyl-1H-1,2,3-triazol-5-yl)-13-fluoro-8-[(S)-oxan-4-yl(phenyl)methyl]-3,8,12-triazatricyclo[7.4.0.0^2,^7]trideca-1(13),2(7),3,5,9,11-hexaene]",< 10 nM
24,"Cc1nnn(C)c1-c1cnc2c3cc(Cl)ncc3n([C@H](c3ccccc3F)C3CCOCC3)c2c1 [Example 4, 12-Chloro-5-(dimethyl-1H-1,2,3-triazol-5-yl)-8-[(S)-(2-fluorophenyl)(oxan-4-yl)methyl]-3,8,11-triazatricyclo[7.4.0.0^2,^7]trideca-1(13),2(7),3,5,9,11-hexaene]",< 10 nM
25,"Cc1nnn(C)c1-c1cnc2c3ccnc(Cl)c3n([C@H](c3ccccc3F)C3CCOCC3)c2c1 [Example 5, 10-Chloro-5-(dimethyl-1H-1,2,3-triazol-5-yl)-8-[(S)-(2-fluorophenyl)(oxan-4-yl)methyl]-3,8,11-triazatricyclo[7.4.0.0^2,^7]trideca-1(13),2(7),3,5,9,11-hexaene]",< 10 nM
26,"Cc1nnn(C)c1-c1cnc2c3ccnc(Cl)c3n([C@H](c3ccccc3)C3CCOCC3)c2c1 [Example 6, 10-Chloro-5-(dimethyl-1H-1,2,3-triazol-5-yl)-8-[(S)-oxan-4-yl(phenyl)methyl]-3,8,11-triazatricyclo[7.4.0.0^2,^7]trideca-1(13),2(7),3,5,9,11-hexaene]",< 1 nM
